We go through 1 compound from US9777037B2, “Neurosteroid compounds” (BIONATURE E. A. LTD., priority 2007, dated 2017).

One assay addresses T1, TrkA NGF receptors (Homo sapiens, UniProt P04629).
T1 construct: expressed in transfected cells; host or cells: HEK293
Put plainly: [3H]DHEA competition binding on membranes from HEK293 TrkA cells. As to conditions: membranes from HEK293 TrkA cells (FIG. 9). As for the experimental part: (§1) HEK293 cells were transfected with the cDNAs of TrkA and p75NTR, the high and low affinity receptors for nerve growth factor (NGF) (Ann Rev Biochem 72:604, 2003). Transfectants expressing the two NGF receptor subtypes were cultured in flasks and, after washing twice with PBS, they were detached from the flasks. After a centrifugation at 1500 g, they were homogenized by sonication, in a 50 mM Tris-HCl buffer pH 7.4 at 4° C., containing freshly added protease inhibitors (1 mM PMSF and 1 μg/ml aprotinin). Unbroken cells were removed by centrifugation at 1500 g (10 min at 4° C.), and membranes were collected by centrifuging at 102,000 g for 1 hr at 4° C. Membranes were washed once with Tris-HCl, briefly acidified at 4° C. (for 3 min) with 50 mM glycine (pH 5.0), and re-suspended in the same buffer. Protein content was assayed by the method of Bradford, using reagents from Bio-Rad (Hercules, Calif.). Membranes (at a final concentration of 2 mg/ml) were incubated with 5 nM [^3H]DHEA, in the absence (to determine the total binding) or presence of unlabelled BNN-124 at concentrations varying from 10^−12 to 10^−6 M and at a final volume of 100 μl, in Tris-HCl buffer (50 mM, pH 7.4). […] The filters were washed three times with ice-cold Tris-HCl, dried and counted in a β-scintillation counter (Perkin Elmer, Foster City, Calif.) with 60% efficiency for tritium.

The test system of assay [1] is Bcl-2 and Bcl-xL proteins. As to the kind of experiment: Western blot of anti-apoptotic Bcl-2 and Bcl-xL proteins in serum-deprived PC12 cells. In kind it is cell-based, rat. As to conditions: 10 nM neurosteroid (FIG. 4). As for the experimental part: Neural-crest derived PC12 cells were cultured for 8 hours in the absence of serum, but supplemented with 10 nM of various neurosteroids. At the end of incubation cell lysates were subjected to electrophoresis through a 12% SDS-polyacrylamide gel. Then, proteins were transferred to nitrocellulose membranes, which were processed according to standard Western blotting procedures. To detect protein levels, membranes were incubated with the appropriate antibodies: Bcl-2, (Santa Cruz Biotechnology Inc., Santa Cruz, Calif., dilution 1:100) Bcl-xL (Cell Signalling Technology Inc., Beverly, Mass., dilution 1:100). A PC-based Image Analysis program was used to quantify the intensity of each band (Image Analysis, Inc., Ontario, Canada). To normalize for protein content, the blots were stripped and stained with anti-actin antibodies (Chemicon, Temecula, Calif., dilution 1:400); the concentration of each target protein was normalized versus actin.

The next assay has as its target T2, p75NTR NGF receptors (Homo sapiens, UniProt P08138).
T2 construct: expressed in transfected cells; host or cells: HEK293
T2 sequence (P08138 29-427): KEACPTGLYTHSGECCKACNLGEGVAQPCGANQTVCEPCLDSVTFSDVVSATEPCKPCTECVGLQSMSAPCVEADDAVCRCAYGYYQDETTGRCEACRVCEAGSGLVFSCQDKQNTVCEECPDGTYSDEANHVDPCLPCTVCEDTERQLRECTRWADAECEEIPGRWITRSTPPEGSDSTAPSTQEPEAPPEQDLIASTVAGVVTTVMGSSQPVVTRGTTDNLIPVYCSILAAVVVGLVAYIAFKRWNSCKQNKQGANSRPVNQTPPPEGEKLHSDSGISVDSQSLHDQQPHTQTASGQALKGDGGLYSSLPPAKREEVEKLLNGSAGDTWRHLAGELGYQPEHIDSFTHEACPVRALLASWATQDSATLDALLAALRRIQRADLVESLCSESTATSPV
Put plainly: [3H]DHEA competition binding on membranes from HEK293 p75NTR cells. As to conditions: membranes from HEK293 p75NTR cells (FIG. 9). As for the experimental part:
as §1

Assay [2] has as its system DHEA specific membrane receptors. Put plainly: [3H]DHEA competition binding on isolated PC12 cell membranes. Details: species or system rat. The protocol:
PC12 rat sympathoadrenal cells were cultured in 225 cm^2 flasks and, after washing twice with PBS, they were detached from the flasks by vigorous shaking. After a centrifugation at 1500 g, they were homogenized by sonication, in a 50 mM Tris-HCl buffer pH 7.4 at 4° C., containing freshly added protease inhibitors (1 mM PMSF and 1 μg/ml aprotinin). Unbroken cells were removed by centrifugation at 1500 g (10 min at 4° C.), and membranes were collected by centrifuging at 102,000 g for 1 hr at 4° C. Membranes were washed once with Tris-HCl, briefly acidified at 4° C. (for 3 min) with 50 mM glycine (pH 5.0), and re-suspended in the same buffer. Protein content was assayed by the method of Bradford, using reagents from Bio-Rad (Hercules, Calif.). Membranes (at a final concentration of 2 mg/ml) were incubated with 5 nM [^3H]DHEA, in the absence (to determine the total binding) or presence of unlabeled neurosteroids and their synthetic spiro analogs, at concentrations varying from 10^−12 to 10^−6 M and at a final volume of 100 μl, in Tris-HCl buffer (50 mM, pH 7.4). Following a […] incubation in a water bath, at 37° C., membranes were collected on GF/B filters, prewet in 0.5% PEI solution at 4° C. The filters were washed three times with ice-cold Tris-HCl, dried, supplemented with scintillation medium (Sigma Hellas, Athens, Greece) and counted in a β-scintillation counter (Perkin Elmer, Foster City, Calif.) with 60% efficiency for Tritium.

Assay [3] concerns Bcl-2 protein and ERK1/2 kinase. As to the kind of experiment: Western blot of Bcl-2 and phosphorylated ERK1/2 in serum deprived PC12 cells. In kind it is cell-based, rat. As to conditions: 8 hours, 10 nM BNN-124 or 20 ng/ml NGF (FIG. 9). As for the experimental part: Neural-crest derived PC12 cells were cultured for 8 hours in the absence of serum, but supplemented with 10 nM of synthetic neurosteroids of 20 ng/ml of NGF. At the end of incubation cell lysates were subjected to electrophoresis through a 12% SDS-polyacrylamide gel. Then proteins were transferred to nitrocellulose membranes, which were processed according to standard Western blotting procedures. To detect protein levels, membranes were incubated with the appropriate antibodies: Bcl-2 (Santa Cruz Biotechnology Inc., Santa Cruz, Calif., dilution 1:100), phosphorylated ERK1/2 (Cell Signalling Technology Inc., Beverly, Mass., dilution 1:100). To normalize for protein content, the blots were stripped and stained with anti-actin or anti-total ERK1/2 antibodies (Chemicon, Temecula, Calif., dilution 1:400).

Assay [4] relates to Neural-crest derived PC12 cells. Put plainly: APOPercentage apoptosis assay, serum-deprivation induced apoptosis of PC12 cells. As to conditions: Rattus norvegicus, PC-12, absence of serum 12 hours, ApoPercentage assay (FIG. 2), read-out: IC50 of anti-apoptotic, cytoprotective effect. Type of assay: cell-based, rat. As for the experimental part: Neural-crest derived PC12 cells were maintained in culture at 5% CO2, at 37° C., in RPMI 1640 medium containing 2 mM L-glutamine, 15 mM HEPES, 100 units/ml penicillin, 0.1 mg/ml streptomycin, 10% horse serum, and 5% foetal calf serum. Serum free medium was supplemented with 1% bovine serum albumin (BSA). Different steroids, used at various concentrations, were initially diluted in ethanol. The final concentration of ethanol in each well, including controls was 0.01%. Conjugate DHEA-BSA was initially diluted in Phosphate Buffer Saline (PBS).
Cells were cultured in the absence of serum for 12 hours, supplemented with DHEA and various synthetic spiro neurosteroids at 10 nM. Cell apoptosis was quantitated with two different methods: The APOPercentage Apoptosis Assay (Biocolor Ltd., Belfast, N. Ireland) was used to quantify apoptosis, according to the manufacturer's instructions. Apoptosis was quantified following cell lysis by measuring the dye incorporated in apoptotic cells at 550 nm (reference filter 620 nm) using a colour filter microplate colorimeter (Dynatech MicroElisa reader, Chantilly, Va.) (see FIGS. 1 and 2). FACS Analysis: FACS analysis of apoptotic cells was performed according to our protocol (Proc Natl Acad Sci USA 101,8209 (2004)). Flow cytometry was performed with FACScan (Becton Dickinson, Heidelberg, Germany) and the results were analysed with the FACScan and Cell Quest softwares (see FIG. 3).

T1 sequence (P04629 33-796): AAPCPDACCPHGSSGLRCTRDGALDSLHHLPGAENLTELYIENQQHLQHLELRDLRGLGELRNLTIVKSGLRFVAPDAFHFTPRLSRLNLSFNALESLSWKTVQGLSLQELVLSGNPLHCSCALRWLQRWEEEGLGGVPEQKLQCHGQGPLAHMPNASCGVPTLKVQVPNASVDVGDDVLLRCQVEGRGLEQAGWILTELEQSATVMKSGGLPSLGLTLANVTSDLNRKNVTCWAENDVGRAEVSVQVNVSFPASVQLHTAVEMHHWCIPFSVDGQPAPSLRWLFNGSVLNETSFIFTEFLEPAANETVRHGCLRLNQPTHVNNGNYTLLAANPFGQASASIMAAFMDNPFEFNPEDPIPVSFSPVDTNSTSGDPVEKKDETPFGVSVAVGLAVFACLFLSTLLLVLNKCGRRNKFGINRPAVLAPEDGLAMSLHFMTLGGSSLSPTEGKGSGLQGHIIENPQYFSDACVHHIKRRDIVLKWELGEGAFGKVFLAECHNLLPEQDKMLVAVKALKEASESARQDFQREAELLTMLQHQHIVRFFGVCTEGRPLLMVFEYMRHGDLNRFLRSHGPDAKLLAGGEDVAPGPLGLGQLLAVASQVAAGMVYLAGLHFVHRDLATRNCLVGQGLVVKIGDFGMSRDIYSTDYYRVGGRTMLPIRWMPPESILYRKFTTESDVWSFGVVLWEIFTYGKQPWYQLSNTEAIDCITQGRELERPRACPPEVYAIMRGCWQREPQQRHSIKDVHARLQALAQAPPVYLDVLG

In general, Kd refers to the equilibrium constant for the complex coming apart. Read a low Kd as higher affinity. Usually IC50 stands for the concentration at which inhibition is half-maximal. Consider `C[C@]12CC[C@H](O)CC1=CCC1C2CC[C@@]2(C)C1CC[C@]21O[C@H]1CO` (stereo partly drawn) [BNN-124, (20S)-3β,21-dihydroxy-17β,20-epoxy-5-pregnene], for which the dissociation constant (Kd) on TrkA NGF receptors turned out to be 290 pM; at p75NTR NGF receptors, 1000 pM; in assay [2] (isolated PC12 cell membranes, 5 nM [3H]DHEA (FIG. 5)), 330 pM. Further, the “levels of anti-apoptotic Bcl-2 and Bcl-xL proteins” value in assay [1] is “preventing this effect”. In assay [2] (at 1 μM, PC12 cell membranes), the “displacement of specific [3H]DHEA binding” value is given as “approximately 60%”. Besides, the “induction of anti-apoptotic Bcl-2 protein and phosphorylation of ERK1/2 kinase” value in assay [3] was “same effect”. Moreover, the IC50 in assay [4] is 68400 pM.
